Experimental data: patent US8613927B2, “High affinity human antibodies to human nerve growth factor” (Regeneron Pharmaceuticals, Inc., priority 2007, dated 2013)
Where two headings read alike, the source gives them in different places.

Assays:
[1] = tested on: transgenic mice of which the endogenous mouse NGF locus was replaced with the human NGF gene; test: Seltzer neuropathic pain model in mice with human NGF gene, Hargreaves' test; assay type: in vivo; conditions: 50 mg/kg s.c. at day 8 post-surgery; p<0.05
Method: These mice were used in a Seltzer neuropathic pain model to test REGN268 and control mAbs. Following the Seltzer surgery, these mice were tested at day 4 and at day 8 post-surgery to confirm that the thermal hyperalgesia had developed.

[2] = target: T1, NT-3 signaling through TrkC (engineered HEK293 cell line expressing TrkC) (Homo sapiens, UniProt P20783); test: HEK293/TrkC SRE-luciferase bioassay of NT-3 signaling; assay type: cell-based; conditions: 15 pM NT-3; 6 hours; read-out: IC50, inhibition of NT-3-mediated luciferase activity
T1 construct: host or cells: NT-3 added exogenously; partner TrkC made by an engineered HEK293 line
T1 sequence (P20783 139-257): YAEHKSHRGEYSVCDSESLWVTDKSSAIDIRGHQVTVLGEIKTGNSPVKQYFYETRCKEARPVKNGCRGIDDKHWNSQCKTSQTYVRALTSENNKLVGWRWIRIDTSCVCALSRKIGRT
Method: An engineered HEK293 cell line expressing TrkC was transfected with a SRE-luciferase reporter plasmid. NT-3 drives luciferase expression in a 6-hour assay. […] The engineered HEK293 cell line was seeded onto 96-well plates at 1×10^4 cells/well in serum-free media and incubated overnight at 37° C., 5% CO2. […] The cells were then incubated at 37° C., 5% CO2 for 6 hours. Luciferase activity was determined by adding an equal well volume of BRIGHT GLOW™ (Promega).

[3] = target: T2, human NT-3 (Homo sapiens, UniProt P20783); test: BIACORE cross-reactivity test, NT-3; assay type: binding; conditions: NT-3 1.25 nM to 40 nM; purified antibodies
T2 sequence (P20783 139-257): T1 sequence (P20783 139-257)
Method: The anti-NGF antibodies were examined for binding cross-reactivity with human NT-3. Briefly, goat anti-human IgG polyclonal antibody was chemically linked to a CM5 chip. Anti-NGF monoclonal antibodies were injected forming a surface of about 50 to 900 RU of immobilized antibody through the interaction with the chip coupled polyclonal antibodies. […] Both association and dissociation phases were monitored and data were analyzed. Results are shown in Table 3 (NB=no binding activity observed).

[4] = target: T3, Human NGF (PC12 cells, rat adrenal medulla cell line) (Homo sapiens, UniProt P01138, DEL136-138/DEL208-209); test: PC12 SRE-luciferase assay of NGF signaling through p75 and TrkA; assay type: cell-based
T3 construct: host or cells: NGF added exogenously; receptors endogenous in PC12 cells
Method: The ability of NGF antibodies to block NGF signaling p75 and TrkA receptor-mediated activity was also measured in vitro using a rat adrenal medulla cell line, PC12, which express both receptors endogenously (Urdiales et al. 1998 J. Neuroscience 18(17):6767-6775). Briefly, PC12 cells were stably transfected with a reporter plasmid containing a serum response element (SRE) linked to a luciferase gene. The transfected cells were resuspended at approximately 2.5×10^5 cells per ml and plated at 50,000 cells per well in a 96-well tissue culture plate in Opti-MEM media overnight. The purified antibody proteins were serially diluted in medium (DMEM plus 0.1% BSA) and added to the plated cells at concentrations ranging from 0 to 100 nM. Human NGF was added to the wells to a final concentration of 12.5 pM. Luciferase activity was measured after incubating the cells for 6 hours at 37° C. in a humidified 7.5% CO2 incubator using BRIGHT GLOW™ luciferase assay system (Promega). Control mAb=RN624.

[5] = target: mouse NGF (mNGF) (Mus musculus, UniProt P01139); test: BIACORE binding affinity to mouse NGF
Method: Antigen binding affinities of the antibodies for human NGF were determined by surface kinetics using a real-time biosensor surface plasmon resonance assay (BIACORE™). Antibodies were captured on either a goat, anti-human or anti-mouse IgG polyclonal antibody surface created by direct amine coupling of the capture antibody to a BIACORE™ chip. Various concentrations of human NGF were injected over the captured antibody surfaces while the association of the antigen to the antibody and the dissociation of the bound complex were monitored in real time. Kinetic analysis was performed to obtain the equilibrium dissociation constant (KD) and dissociation rate constant, and the latter was used to calculate the antigen/antibody complex dissociation t1/2 (Table 1).
Human NGF (NGF) is highly homologous in amino acid sequence to mouse NGF (mNGF) and rat NGF (rNGF) with about 90% identity. The binding affinities of the antibodies to both mNGF and rNGF were determined as described above.
The binding affinity of selected purified anti-NGF antibodies to mNGF and rNGF were also determined (Table 6).

[6] = tested on: C57BL/6 mice; test: Post-operative incision pain model, thermal hyperalgesia in Hargreaves' test; assay type: in vivo, mouse; conditions: for mean percent change from Hargreaves baseline: Table 14; for Hargreaves' test result (thermal hyperalgesia): Table 16
Method: Post-operative incision pain model. […] For the plantar incision surgery, C57BL/6 mice under isoflurane received an incision through skin, fascia and then isolating the underlying flexor muscle and bisecting vertically. After suture and recovery, the mice were tested for thermal hyperalgesia in the Hargreaves' test and for guarding behavior in the weight bearing test (model 600, IITC Life Science) for 5 days.
Thermal hyperalgesia was studied in the Hargreaves' test and mechanical allodynia was tested in the von Frey test. In this latter test, mice were tested after being acclimated for 2-3 hours for 4 days in an apparatus with a wire mesh floor. The test was performed by applying, in ascending order, a series of von Frey hairs through the wire mesh onto the plantar surface of the hind paw with the incision. A response was considered positive if the paw was raised from the platform in response to application of the filament. Starting from the thinnest hair, each von Frey filament was applied up to five times until a response was observed.

[7] = target: NGF (Homo sapiens, UniProt P01138, DEL136-138/DEL208-209); test: BIACORE cross-reactivity test, NGF injected at 20 nM; assay type: binding; conditions: Table 3; NGF 20 nM
Method: The anti-NGF antibodies were examined for binding cross-reactivity with human NT-3. Briefly, goat anti-human IgG polyclonal antibody was chemically linked to a CM5 chip. Anti-NGF monoclonal antibodies were injected forming a surface of about 50 to 900 RU of immobilized antibody through the interaction with the chip coupled polyclonal antibodies. NGF or NT-3 protein at a concentration of 20 nM was injected over the surface, followed by a buffer wash to allow bound ligand to dissociate. Both association and dissociation phases were monitored and data were analyzed. Results are shown in Table 3 (NB=no binding activity observed).

T3 sequence (P01138 with tags, fused parts or gaps DEL136-138/DEL208-209): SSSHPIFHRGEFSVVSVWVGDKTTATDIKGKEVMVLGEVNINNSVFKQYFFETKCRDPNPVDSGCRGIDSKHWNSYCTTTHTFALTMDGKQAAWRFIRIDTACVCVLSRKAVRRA
Chain of mouse NGF (mNGF) (P01139 122-241): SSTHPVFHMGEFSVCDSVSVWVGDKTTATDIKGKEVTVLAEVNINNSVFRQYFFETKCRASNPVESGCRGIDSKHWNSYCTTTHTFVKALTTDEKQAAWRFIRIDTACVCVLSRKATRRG
Chain of NGF (P01138 with tags, fused parts or gaps DEL136-138/DEL208-209): as the sequence (P01138 with tags, fused parts or gaps DEL136-138/DEL208-209) above

## IgG1 Control: negative binding control, IgG1 control (AVASTIN®; Genentech, CA)
[1]
  relief of neuropathic pain in humanized NGF mice: had no effect

## tanezumab [RN624]
[2]
  IC50: 150000 to 200000 pM
[3]
  Kd: 1100 pM
[4]; Table 10, 12.5 pM human NGF, 6 hours, read-out: PC12 IC50
  IC50: 21 pM
[4]; Table 11, selected purified antibodies, PC12 luciferase, read-out: IC50
  IC50: 4.9 pM
[5]; Table 5
  Kd: 1.4 pM
[5]; Table 6, selected purified antibodies
  Kd: 1.4 pM
[6]; 10 mg/kg s.c. 1 hr prior to incision, p<0.001-0.05
  reduction of post-operative pain vs vehicle, Hargreaves' test: significantly reduced the post-operative pain
[6]; 25 mg/kg i.p. on day 1 post-surgery, by 72 hours, p<0.001-0.01
  reversal of thermal hyperalgesia: return to baseline was not observed
[6]; 10 mg/kg s.c. 1 hr prior to incision, Baseline, ±SEM
  mean percent change from Hargreaves baseline: 0.00 ± 0.0%
[6]; 10 mg/kg s.c. pre-incision, Day 1 after surgery
  mean percent change from Hargreaves baseline: −62.5 ± 10.6%
[6]; 10 mg/kg s.c. pre-incision, Day 2 after surgery
  mean percent change from Hargreaves baseline: −55.2 ± 9.4%
[6]; 10 mg/kg s.c. pre-incision, Day 3 after surgery
  mean percent change from Hargreaves baseline: −5.3 ± 12.1%
[6]; 10 mg/kg s.c. pre-incision, Day 4 after surgery
  mean percent change from Hargreaves baseline: −6.4 ± 8.7%
[6]; 10 mg/kg s.c. pre-incision, Day 5 after surgery
  mean percent change from Hargreaves baseline: −5.3 ± 5.6%
[6]; 25 mg/kg i.p. on day 1 post-surgery, Baseline
  Hargreaves' test result (thermal hyperalgesia): 0.0 ± 0.0
[6]; 25 mg/kg i.p., 6 hr after treatment
  Hargreaves' test result (thermal hyperalgesia): −68.1 ± 5.2
[6]; 25 mg/kg i.p., 23 hr after treatment
  Hargreaves' test result (thermal hyperalgesia): −40.5 ± 8.9
[6]; 25 mg/kg i.p., 47 hr after treatment
  Hargreaves' test result (thermal hyperalgesia): −37.6 ± 7.2
[6]; 25 mg/kg i.p., 72 hr after treatment
  Hargreaves' test result (thermal hyperalgesia): −47.2 ± 8.0
[6]; 25 mg/kg i.p., Day 1 (post-surgery, before injection)
  Hargreaves' test result (thermal hyperalgesia): −74.7 ± 4.3
[7]
  Kd: 1.3 pM
